# Reference: US11072634B2, “Inhibitors of transglutaminases” (Zedira GmbH, priority 2016, dated 2021)
# Where a SMILES comes first, the peptide text is derived from it. [ ]: non-standard residue; d: D form. The star is where a group is joined. Nle(5,6-dioxo,6-NHMe) = CNC(=O)C(=O)CC[C@H](N)C(=O)O; Isopropoxycarbonyl = CC(C)OC(=O)*; Hyp = O=C(O)[C@@H]1C[C@@H](O)CN1; Tic = O=C(O)[C@@H]1Cc2ccccc2CN1; X8 = CC1(C)CC(CC(=O)*)C(=O)O1; Aib = CC(C)(N)C(=O)O
# Molecular target: T1, recombinant human tissue transglutaminase (rhTG2) (Homo sapiens, UniProt P21980)
# T1 construct: purchased Zedira 1022 (so in the source); T022)
# T1 sequence (P21980 1-687): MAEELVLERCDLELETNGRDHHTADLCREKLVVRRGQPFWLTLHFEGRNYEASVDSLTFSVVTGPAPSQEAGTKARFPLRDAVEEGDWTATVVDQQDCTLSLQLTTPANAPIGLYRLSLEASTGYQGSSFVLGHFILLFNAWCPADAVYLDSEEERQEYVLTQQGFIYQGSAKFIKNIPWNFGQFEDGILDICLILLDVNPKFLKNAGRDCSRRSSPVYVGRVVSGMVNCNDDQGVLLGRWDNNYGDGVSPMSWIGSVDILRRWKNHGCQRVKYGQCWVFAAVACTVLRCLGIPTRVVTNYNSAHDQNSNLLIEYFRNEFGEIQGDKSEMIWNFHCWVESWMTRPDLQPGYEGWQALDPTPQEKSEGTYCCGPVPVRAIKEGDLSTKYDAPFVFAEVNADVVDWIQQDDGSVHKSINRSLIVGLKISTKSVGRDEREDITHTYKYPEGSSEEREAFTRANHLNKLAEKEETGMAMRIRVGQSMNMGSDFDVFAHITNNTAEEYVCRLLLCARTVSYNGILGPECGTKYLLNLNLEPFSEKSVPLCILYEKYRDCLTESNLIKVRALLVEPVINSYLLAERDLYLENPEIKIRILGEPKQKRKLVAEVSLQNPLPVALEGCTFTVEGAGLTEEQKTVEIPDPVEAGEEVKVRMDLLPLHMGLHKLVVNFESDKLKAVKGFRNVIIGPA
# Assay: Inhibition of rec. human tissue transglutaminase (fluorescence, Abz-APE(CAD-DNP)QEA-OH)
# Assay type: biochemical
# Conditions: Table 2, TG2 inhibitors
# Experimental: Method for Inhibition Studies of Rec. Human Tissue Transglutaminase (rhTG2)
# 250 μg lyophilized His-tagged recombinant human tissue transglutaminase (His6-rhTG2, Zedira product 1022) is reconstituted in H2O (volume depends on original volume before lyophilization) resulting in a buffer containing 10 mM Tris-HCl, 150 mM NaCl, 1 mM EDTA, 5 mM DTT, 189 mg/ml maltodextrin, pH=8.1. The rhTG2 stock solution is diluted in buffer (50 mM Tris-HCl, 7.5 mM CaCl2, 150 mM NaCl, pH=7.4) to give a working solution of 100 U/ml (based on the amine-incorporation activity measured using T036, described below).
# A 10 mM inhibitor stock solution is prepared in DMSO, and from this stock solution a serial 1:2-fold dilution series is prepared, also in DMSO. Each of these initial dilutions is subsequently diluted 1:50-fold with buffer (50 mM Tris-HCl, 7.5 mM CaCl2, 150 mM NaCl, pH=7.4) to yield the final working dilutions containing 2% (v/v) DMSO. 15 μl of inhibitor working dilution are added per well of a 96 well microtiter plate. As control, 15 μl of a 2% (v/v) DMSO solution prepared using the buffer mentioned above are added per well.
# 600 μl of His6-rhTG2 working solution are added to 11.4 ml assay buffer (50 mM Iris-HCl, 7.5 mM CaCl2, 150 mM NaCl, 5 mM DTI, 13.4 mM glycine methylester, 50 μM Abz-APE(CAD-DNP)QEA-OH, (Zedira product A102; patent No.: EP 1781807B1), pH=7.4). From this master-mix solution, 285 μl are added per well containing the inhibitor. Increase in fluorescence is measured using λex=313 nm and λem=418 nm at 37° C. for 20 min. A slope of the increase in fluorescence between 10 and 20 min is calculated for determination of the IC50 value (inhibitor concentration at which 50% of the initial TG2 activity is blocked).
# Analysis of enzymatic activity is performed by calculation of the slope of an increase in fluorescence intensity. IC50 values are calculated by plotting the enzymatic activity (as percentage from control containing 2% DMSO instead of inhibitor) against the inhibitor concentration. IC50 is defined as the inhibitor concentration blocking 50%) of initial enzyme activity.
row,IC50,SMILES
1,275 nM,"CCC(CC)CNC(=O)Cn1cccc(NC(=O)[C@H](CCC(=O)C(=O)NC)NC(=O)Nc2ccccc2)c1=O [Compound E69, (S)—N1-(1-(2-(2-ethylbutylamino)-2-oxoethyl)-2-oxo-1,2-dihydropyridin-3-yl)-N6-methyl-5-oxo-2-(3-phenylureido)hexanediamide]"
2,265 nM,"CCC(CC)CNC(=O)Cn1cccc(NC(=O)[C@H](CCC(=O)C(=O)NC)NC(=S)Nc2ccccc2)c1=O [Compound E70, (S)—N1-(1-(2-(2-ethylbutylamino)-2-oxoethyl)-2-oxo-1,2-dihydropyridin-3-yl)-N6-methyl-5-oxo-2-(3-phenylthioureido)hexanediamide]"
3,6000 nM,"CCC(CC)CNC(=O)Cn1cccc(NC(=O)[C@H](CCCC(=O)C(=O)NC)NC(=O)c2cncn2C)c1=O [Compound E71, (S)—N1-(1-(2-(2-ethylbutylamino)-2-oxoethyl)-2-oxo-1,2-dihydropyridin-3-yl)-N7-methyl-2-(1-methyl-1H-imidazole-5-carboxamido)-6-oxoheptanediamide]"
4,6300 nM,"CNC(=O)C(=O)CCC[C@H](NC(=O)c1cncn1C)C(=O)Nc1ccc(S(=O)(=O)N2CCN(C)CC2)cc1 [Compound E72, (S)—N1-methyl-6-(1-methyl-1H-imidazole-5-carboxamido)-N7-(4-(4-methylpiperazin-1-ylsulfonyl)phenyl)-2-oxoheptanediamide]"
5,6300 nM,"CCC(CC)CNC(=O)Cn1cccc(NC(=O)[C@H](CCCCC(=O)C(=O)NC)NC(=O)c2cncn2C)c1=O [Compound E73, (S)—N1-(1-(2-(2-ethylbutylamino)-2-oxoethyl)-2-oxo-1,2-dihydropyridin-3-yl)-N8-methyl-2-(1-methyl-1H-imidazole-5-carboxamido)-7-oxooctanediamide]"
6,125 nM,"CCC(CC)CNC(=O)Cn1cccc(NC(=O)[C@H](CCC(=O)C(C)=O)NC(=O)c2cncn2C)c1=O [Compound E74, (S)—N-(1-(1-(2-(2-ethylbutylamino)-2-oxoethyl)-2-oxo-1,2-dihydropyridin-3-ylamino)-1,5,6-trioxoheptan-2-yl)-1-methyl-1H-imidazole-5-carboxamide]"
7,135 nM,"CCC(CC)CNC(=O)Cn1cccc(NC(=O)[C@H](CCC(=O)C(=O)C2CC2)NC(=O)c2cncn2C)c1=O [Compound E75, (S)—N-(6-cyclopropyl-1-(1-(2-(2-ethylbutylamino)-2-oxoethyl)-2-oxo-1,2-dihydropyridin-3-ylamino)-1,5,6-trioxohexan-2-yl)-1-methyl-1H-imidazole-5-carboxamide]"
8,550 nM,"CCC(CC)CNC(=O)Cn1cccc(NC(=O)[C@H](CCC(=O)C(=O)c2ccccc2)NC(=O)c2cncn2C)c1=O [Compound E76, (S)—N-(1-(1-(2-(2-ethylbutylamino)-2-oxoethyl)-2-oxo-1,2-dihydropyridin-3-ylamino)-1,5,6-trioxo-6-phenylhexan-2-yl)-1-methyl-1H-imidazole-5-carboxamide]"
9,200 nM,"CCC(CC)CNC(=O)Cn1cccc(NC(=O)[C@H](CCC(=O)C(=O)OC)NC(=O)c2cncn2C)c1=O [Compound E77, (S)-methyl 6-(1-(2-(2-ethylbutylamino)-2-oxoethyl)-2-oxo-1,2-dihydropyridin-3-ylamino)-5-(1-methyl-1H-imidazole-5-carboxamido)-2,6-dioxohexanoate]"
10,400 nM,"CCC(CC)CNC(=O)Cn1cccc(NC(=O)[C@H](CCC(=O)C(=O)OCCOC)NC(=O)c2cncn2C)c1=O [Compound E78, (S)-2-methoxyethyl 6-(1-(2-(2-ethylbutylamino)-2-oxoethyl)-2-oxo-1,2-dihydropyridin-3-ylamino)-5-(1-methyl-1H-imidazole-5-carboxamido)-2,6-dioxohexanoate]"
11,530 nM,"CCC(CC)CNC(=O)Cn1cccc(NC(=O)[C@H](CCC(=O)C(=O)NOCC2CCCC2)NC(=O)c2cncn2C)c1=O [Compound E79, (S)—N1-(cyclopentylmethoxy)-N6-(1-(2-(2-ethylbutylamino)-2-oxoethyl)-2-oxo-1,2-di-hydropyridin-3-yl)-5-(1-methyl-1H-imidazole-5-carboxamido)-2-oxohexanediamide]"
12,135 nM,"CCC(CC)CNC(=O)Cn1cccc(NC(=O)[C@H](CCC(=O)C(=O)CC(C)C)NC(=O)c2cncn2C)c1=O [Compound E80, (S)—N-(1-(1-(2-(2-ethylbutylamino)-2-oxoethyl)-2-oxo-1,2-dihydropyridin-3-ylamino)-8-methyl-1,5,6-trioxononan-2-yl)-1-methyl-1H-imidazole-5-carboxamide]"
13,740 nM,"CCC(CC)CNC(=O)Cn1cccc(NC(=O)[C@H](CCC(=O)C(=O)c2cn(C)cn2)NC(=O)c2cncn2C)c1=O [Compound E81, (S)—N-(1-(1-(2-(2-ethylbutylamino)-2-oxoethyl)-2-oxo-1,2-dihydropyridin-3-ylamino)-6-(1-methyl-1H-imidazol-4-yl)-1,5,6-trioxohexan-2-yl)-1-methyl-1H-imidazole-5-carboxamide]"
14,1350 nM,"CNC(=O)C(=O)CC[C@H](NC(=O)CC1CC(C)(C)OC1=O)C(=O)N[C@@H](Cc1c[nH]cn1)C(=O)N[C@@H](Cc1ccc(O)cc1)C(=O)N1Cc2ccccc2C[C@H]1C(N)=O (stereo partly drawn) [Compound E82, (2S)-N1-((S)-1-((S)-1-((S)-3-carbamoyl-3,4-dihydroisoquinolin-2(1H)-yl)-3-(4-hydroxy-phenyl)-1-oxopropan-2-ylamino)-3-(1H-imidazol-4-yl)-1-oxopropan-2-yl)-2-(2-(5,5-dimethyl-2-oxotetrahydrofuran-3-yl)acetamido)-N6-methyl-5-oxohexanediamide] (X8-[Nle(5,6-dioxo,6-NHMe)]HY[Tic]-NH2)"
15,2000 nM,"CNC(=O)C(=O)CC[C@H](NC(=O)Cc1cc(C)nn1C)C(=O)Nc1cccc(C(=O)N[C@@H](Cc2ccc(-c3ccccc3)cc2)C(=O)N2C[C@H](Oc3ccccc3)C[C@H]2C(N)=O)c1 [Compound E83, (S)—N1-(3-((S)-3-(biphenyl-4-yl)-1-((2S,4R)-2-carbamoyl-4-phenoxypyrrolidin-1-yl)-1-oxopropan-2-ylcarbamoyl)phenyl)-2-(2-(1,3-dimethyl-1H-pyrazol-5-yl)acetamido)-N6-methyl-5-oxohexanediamide]"
16,960 nM,"CNC(=O)C(=O)CC[C@H](NC(=O)OC(C)C)C(=O)N[C@@H](CCCNC(=N)N)C(=O)NC(C)(C)C(=O)N1C[C@H](O)C[C@H]1C(N)=O [Compound E84, isopropyl (S)-1-((S)-1-(1-((2S,4R)-2-carbamoyl-4-hydroxypyrrolidin-1-yl)-2-methyl-1-oxopropan-2-ylamino)-5-guanidino-1-oxopentan-2-ylamino)-6-(methylamino)-1,5,6-trioxohexan-2-ylcarbamate] (Isopropoxycarbonyl-[Nle(5,6-dioxo,6-NHMe)]R[Aib][Hyp]-NH2)"
